pIC50: −log10 of the molar value.
Target: Tyrosine-protein kinase BTK (Homo sapiens, UniProt Q06187)
Assay: Inhibition Assay: The inhibitory properties of compounds relative to BTK is determined using a black 384-well-plate format in a buffer which contains 50 mM Hepes, 10 mM NaCl, 10 mM MgCl2, 0.2 mM EDTA, 0.01% Brij35®, 1 mM DTT, and 0.1 mg/mL BSA at pH 7.3. The test compound is prepared in DMSO using 2-fold serial dilutions for 11 data points, which are added to the buffer so that each dilution contains 3% DMSO. […] The reaction mixtures are incubated at room temperature for 60 minutes and then quenched by adding 25 μL of 50 mM EDTA. To quantify the fluorescent-labeled substrate and product following reaction, the test plate is loaded on a Caliper LC-3000, which measures percent of conversion by microfluidic-based separation.

Sequence of Tyrosine-protein kinase BTK (Q06187 whole entry): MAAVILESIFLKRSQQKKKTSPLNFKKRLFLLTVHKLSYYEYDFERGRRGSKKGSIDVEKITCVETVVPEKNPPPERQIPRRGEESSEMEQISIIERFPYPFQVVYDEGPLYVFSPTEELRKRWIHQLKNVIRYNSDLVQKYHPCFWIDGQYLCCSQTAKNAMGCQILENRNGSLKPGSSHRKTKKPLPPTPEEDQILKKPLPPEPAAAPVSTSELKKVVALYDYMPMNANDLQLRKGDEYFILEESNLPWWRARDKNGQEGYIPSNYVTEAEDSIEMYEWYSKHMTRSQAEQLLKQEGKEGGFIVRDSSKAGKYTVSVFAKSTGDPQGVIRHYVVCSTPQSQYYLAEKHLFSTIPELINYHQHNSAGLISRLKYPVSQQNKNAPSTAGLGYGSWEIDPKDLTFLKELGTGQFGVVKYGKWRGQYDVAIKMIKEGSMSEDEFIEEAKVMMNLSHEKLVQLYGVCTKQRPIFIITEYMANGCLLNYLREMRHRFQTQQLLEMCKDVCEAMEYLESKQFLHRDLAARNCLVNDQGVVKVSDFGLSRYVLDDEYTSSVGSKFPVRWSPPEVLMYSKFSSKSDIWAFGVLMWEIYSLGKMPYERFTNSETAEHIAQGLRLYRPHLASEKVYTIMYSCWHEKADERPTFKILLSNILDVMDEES

Row | SMILES | pIC50
1 | C=CC(=O)N1CC[C@H](Oc2nc(-c3n[nH]c(=O)[nH]3)cc3ccc(Cl)cc23)C1 | > 8.90
2 | C=CC(=O)N1CC[C@H](Oc2nc(-c3n[nH]c(=O)[nH]3)cc3cccc(F)c23)C1 | > 8.90

Reference: ChEMBL document CHEMBL5726562, “Pyridinyl and fused pyridinyl triazolone derivatives” (2017)
